Experimental data reported in patent US20180110774A1, “COMPOSITIONS AND METHODS FOR TREATMENT OF PULMONARY HYPERTENSION” (STC.UNM, priority 2015, published 2018).

Assays:
[1] = system: TH17 cell development; settings: Solt et al., 2011; cited from earlier work
[2] = system: established PH due to CH; experiment: Established CH-induced pulmonary hypertension (reversal: 3 weeks CH, then SR1001 for 2 more weeks in CH); format: in vivo; settings: mice
Procedure: FIGS. 7A-D—TH17 cell inhibition attenuates increases in RVSP in established PH. Wild-type mice were exposed to CH for 21 days followed by administration of SR1001 (25 mg/kg/day s.c.) for an additional 14 days in CH. (A) RVSP. (B) Fulton's index. (C) Pulmonary arterial remodeling. (D) % Hematocrit. Values are means±SEM; *p<0.05 vs. vehicle, n=5-6/group, analyzed by unpaired T-test.
(§1) Methods: Age- and sex-matched mice C57BL/6J wild-type (WT), RAG1 KO mice (lack mature T and B cells), IL-17-GFP mice (express EGFP in cells expressing IL-17A), were used in these studies (The Jackson Laboratory). Mice were exposed to chronic hypoxia (CH) for 2 to 21 days in a hypobaric chamber maintained at a barometric pressure of 380 mmHg. Normoxic animals were housed in identical cages in the same facility under normobaric conditions (PB=630 mmHg in Albuquerque, N. Mex.).
To follow up on the immunologic timing of events, studies were undertaken to understand whether PH due to CH might be reversed once already established by inhibiting TH17 cell development. Therefore, after 3 weeks of CH, osmotic pumps containing SR1001 (0.625 mg/day for 25 g mouse). were implanted sub-cutaneously and animals were immediately returned to CH for an additional 2 weeks (5 weeks of CH total).

[3] = system: perivascular T cells (CD3+); experiment: Perivascular CD3+ T cells in lung sections of mice exposed to chronic hypoxia (immunohistochemistry); format: in vivo; settings: WT mice, CH for 2, 5 or 21 days; SR1001 0.625 mg/day for 25 g mouse s.c.; vs vehicle
Procedure: FIGS. 5A-D—Inhibition of TH17 cell development decreases CH-induced increases in perivascular T cells. Following treatment, lungs sections were stained with an anti-CD3 antibody to allow quantification of CD3+ T cells in the perivascular region of the lungs. The RORyt specific inhibitor, SR1001 was delivered daily by sub-cutaneous injection (0.625 mg/day for 25 g mouse) for the length of normoxic or CH exposure. (A) Perivascular CD3+ cells from mice exposed to 2 days, (B) 5 days or (C) 21 days of normoxia or CH. (D) Representative images of lung sections from mice exposed to CH with or without SR1001. Values are means±SEM, *p<0.05 vs. normoxia vehicle. n=3-4/group, 5-15 arteries<150 μm outer circumference, per mouse, analyzed by 2-way ANOVA followed by multiple comparisons Student-Newman-Keuls test.
Methods: Age- and sex-matched mice C57BL/6J wild-type (WT), RAG1 KO mice (lack mature T and B cells), IL-17-GFP mice (express EGFP in cells expressing IL-17A), were used in these studies (The Jackson Laboratory). Mice were exposed to chronic hypoxia (CH) for 2 to 21 days in a hypobaric chamber maintained at a barometric pressure of 380 mmHg. Normoxic animals were housed in identical cages in the same facility under normobaric conditions (PB=630 mmHg in Albuquerque, N. Mex.). […]

[4] = target: T1, RORα (Homo sapiens, UniProt P35398); settings: selective inverse agonist; Solt et al., 2011, 2012; cited from earlier work
T1 sequence (P35398 1-523): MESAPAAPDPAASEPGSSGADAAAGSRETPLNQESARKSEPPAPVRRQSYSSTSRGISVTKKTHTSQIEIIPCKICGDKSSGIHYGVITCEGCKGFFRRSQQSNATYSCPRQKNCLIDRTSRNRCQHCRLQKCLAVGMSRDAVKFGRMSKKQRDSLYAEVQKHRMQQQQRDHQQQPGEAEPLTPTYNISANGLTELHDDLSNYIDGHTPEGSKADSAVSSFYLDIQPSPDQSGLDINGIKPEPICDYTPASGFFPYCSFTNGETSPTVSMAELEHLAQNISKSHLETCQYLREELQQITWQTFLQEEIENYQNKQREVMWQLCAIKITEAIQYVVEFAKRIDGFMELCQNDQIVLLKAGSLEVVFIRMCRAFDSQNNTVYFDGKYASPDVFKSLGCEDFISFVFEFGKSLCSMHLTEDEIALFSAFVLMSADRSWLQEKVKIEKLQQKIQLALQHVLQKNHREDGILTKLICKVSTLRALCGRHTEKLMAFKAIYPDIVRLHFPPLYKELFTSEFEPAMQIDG

[5] = system: TH17 cell development; settings: Solt et al., 2011; cited from earlier work; remark: listed apart in the source
[6] = system: CH-induced PH; experiment: Development of chronic hypoxia (CH)-induced pulmonary hypertension, 21 days; format: in vivo; settings: mice, CH 21 days; SR1001 0.625 mg/day for 25 g mouse s.c. osmotic pump
Procedure: FIGS. 6A-D—Inhibition of TH17 cell polarization attenuates the development of CH-induced PH. SR1001 prepared in propylene glycol, 0.625 mg/day for 25 g mouse, was delivered sub-cutaneously via an implantable osmotic pump. Mice were exposed to normoxia or chronic hypoxia for 21 days, at which point (A) RVSP, (B) Fulton's index, (C) pulmonary arterial % wall thickness (<150 μm diameter) and (D) hematocrit were measured. Values are means±SEM; *p<0.05 vs. normoxia vehicle #p<0.05 vs. normoxic SR1001, n=4-5/group, analyzed by 2-way ANOVA followed by multiple comparisons Student-Newman-Keuls test.
as §1
CD4+ T cells contribute to chronic hypoxia-induced pulmonary hypertension. To directly assess the contribution of T cells to CH-induced PH, recombination-activating gene 1 (RAG1) knockout mice, which lack the enzyme that plays a crucial role in the development of T and B cells were studied. Therefore, RAG1 KO mice lack mature T and B cells (Mombaerts et al., 1992). RAG1 KO mice were exposed to CH for 21 days or left in normoxia. […] RVSP was measured by direct cardiac puncture under isoflurane anesthesia (Bierer et al., 2011). The inventors also isolated CD4^+ or CD8+ cells from the lymph nodes of WT mice by negative selection using a magnetic bead cell isolation kit (Miltenyi Biotec). 2.5×10^5 cells were injected into RAG1 KO mice. After 2 weeks mice were exposed to CH or normoxia.

[7] = target: T2, RORγt (Homo sapiens, UniProt P51449); settings: selective inverse agonist; Solt et al., 2011, 2012; cited from earlier work
T2 sequence (P51449 1-497 isoform P51449-2): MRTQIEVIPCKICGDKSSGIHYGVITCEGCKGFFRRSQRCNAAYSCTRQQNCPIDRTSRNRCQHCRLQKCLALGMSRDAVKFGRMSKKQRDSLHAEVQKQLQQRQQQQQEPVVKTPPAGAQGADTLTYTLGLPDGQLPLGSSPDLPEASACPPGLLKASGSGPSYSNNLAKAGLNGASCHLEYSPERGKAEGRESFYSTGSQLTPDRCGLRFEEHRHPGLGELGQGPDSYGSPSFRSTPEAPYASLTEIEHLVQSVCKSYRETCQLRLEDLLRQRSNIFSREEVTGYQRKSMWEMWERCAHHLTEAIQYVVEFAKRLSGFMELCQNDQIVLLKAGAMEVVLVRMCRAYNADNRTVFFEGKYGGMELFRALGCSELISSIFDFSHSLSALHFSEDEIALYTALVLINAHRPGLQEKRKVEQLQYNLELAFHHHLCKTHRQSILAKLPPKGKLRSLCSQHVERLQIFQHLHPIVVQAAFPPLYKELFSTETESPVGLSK

[8] = 3 weeks CH then SR1001 for additional 2 weeks in CH

## CC(=O)Nc1nc(C)c(S(=O)(=O)Nc2ccc(C(O)(C(F)(F)F)C(F)(F)F)cc2)s1 [SR1001, N-(5-(N-(4-(1,1,1,3,3,3-hexafluoro-2-hydroxypropan-2-yl)phenyl)sulfamoyl)-4-methylthiazol-2-yl)acetamide]
[1]
  TH17 cell development in vivo: inhibits TH17 cell development
[2]; 3 weeks CH then SR1001 (0.625 mg/day for 25 g mouse, s.c. osmotic pump) for additional 2 weeks in CH
  already elevated RVSP: significantly decreased
[2]; [8]
  perivascular T cells in the lungs: significant decrease
  pulmonary arterial remodeling: no effect
[2]; 3 weeks CH then SR1001 for additional 2 weeks in CH, p<0.0583
  RV remodeling (Fulton's index): strong trend for a decrease
[3]
  perivascular T cells (CD3+) in the pulmonary arterial perivascular region: significant reduction
[4]
  activity of nuclear receptor RORα: inhibits the activity
[5]
  TH17 cell development in vitro: inhibits TH17 cell development
[6]
  CH-induced increase in RV remodeling (Fulton's index): attenuated
  CH-induced increase in RVSP: attenuated
  CH-induced increase in pulmonary arterial remodeling (% wall thickness): attenuated
[7]
  activity of nuclear receptor RORγt: inhibits the activity
